Laboratory results reported in ChEMBL document CHEMBL3632508, “Discovery of α-mangostin as a novel competitive inhibitor against mutant isocitrate dehydrogenase-1” (Bioorg Med Chem Lett, 2015).

Assays:
[1] = system: Isocitrate dehydrogenase [NADP] cytoplasmic (Homo sapiens), O75874 [R132H]; experiment: Inhibition of human IDH1 R132H mutant expressed in IPTG-induced Escherichia coli BL21 cells assessed as oxidation of NADPH to NADP+ after 5 mins by spectrophotometry; parameters: concentration or dose not given beside the values
Sequence of Isocitrate dehydrogenase [NADP] cytoplasmic (Homo sapiens), O75874 [R132H] (O75874 whole entry R132H): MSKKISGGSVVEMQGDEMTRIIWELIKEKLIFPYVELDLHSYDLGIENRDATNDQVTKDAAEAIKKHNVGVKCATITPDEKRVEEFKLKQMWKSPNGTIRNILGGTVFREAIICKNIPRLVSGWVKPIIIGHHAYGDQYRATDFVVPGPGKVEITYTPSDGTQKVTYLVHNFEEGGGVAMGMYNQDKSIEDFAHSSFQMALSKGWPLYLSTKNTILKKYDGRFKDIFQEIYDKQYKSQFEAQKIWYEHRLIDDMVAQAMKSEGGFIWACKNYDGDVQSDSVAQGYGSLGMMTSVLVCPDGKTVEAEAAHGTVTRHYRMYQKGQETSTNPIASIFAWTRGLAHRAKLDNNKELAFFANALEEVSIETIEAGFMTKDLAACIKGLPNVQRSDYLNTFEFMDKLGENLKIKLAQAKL

[2] = target: Isocitrate dehydrogenase [NADP] cytoplasmic (Homo sapiens) (UniProt O75874); experiment: Inhibition of human IDH1 expressed in IPTG-induced Escherichia coli BL21 cells assessed as reduction of NADP+ to NADPH after 5 mins by spectrophotometry; parameters: concentration or dose not given beside the values
Sequence of Isocitrate dehydrogenase [NADP] cytoplasmic (Homo sapiens) (O75874 whole entry): as the sequence (O75874 whole entry R132H) above, with H132R counted along it

SMILES	Activity [1]	Activity [2]
O=c1c(O)c(-c2ccccc2)oc2cc(O)cc(O)c12	95%	89.1%
CC1(C)CC[C@]2(C)CC[C@]3(C)C(=CC[C@@H]4[C@@]5(C)[C@@H](O)C[C@H](O)C(C)(C)[C@@H]5CC[C@]43C)[C@@H]2C1	111%	99.2%
CC1(C)CC[C@]2(C)CC[C@]3(C)C(=CC[C@@H]4[C@@]5(C)CC[C@H](O)C(C)(C)[C@@H]5[C@H](O)C[C@]43C)[C@@H]2C1	114%	102%
CC[C@H](/C=C/[C@@H](C)[C@H]1CC[C@H]2[C@@H]3CC=C4C[C@@H](O)CC[C@]4(C)[C@H]3CC[C@]12C)C(C)C	101%	111%
O=c1cc(-c2ccc(O)cc2)oc2cc(O)c(O)c(O)c12	92%	89%
O=C(/C=C/c1ccccc1)NCCCCNC(=O)c1ccc(O)cc1	106%	100%
O=C(O)[C@H]1O[C@@H](Oc2cc3oc(-c4ccc(O)cc4)cc(=O)c3c(O)c2O)[C@H](O)[C@@H](O)[C@@H]1O	91.5%	88.8%
COc1ccc(-c2cc(=O)c3c(O)cc(O[C@@H]4O[C@H](COC5OC[C@@H](O)[C@H](O)[C@H]5O)[C@@H](O)[C@H](O)[C@H]4O)cc3o2)cc1O (some centres undefined)	116%	104%
COc1ccc(-c2cc(=O)c3c(O)cc(O[C@@H]4O[C@H](CO)[C@@H](O)[C@H](O)[C@H]4O)cc3o2)cc1O	112%	108%
C/C=C(/C)C(=O)O[C@H]1Cc2c(cc3oc(C)cc(=O)c3c2O)OC1(C)C	105%	97.8%
C=C(C)C(C)CC[C@@H](C)[C@H]1CC[C@@]2(C)[C@@H]3CC[C@H]4C(C)(C)C(=O)CC[C@]4(C)C3=CC[C@]12C (some centres undefined)	124%	106%
COc1c(O)cc2oc3cc(O)c4c(c3c(=O)c2c1CC=C(C)C)OC(C)(C)CC4	106%	100%
O=c1cc(-c2ccc(O)cc2)oc2cc(O)cc(O)c12	84%	97.4%
CC1(C)CC[C@]2(C(=O)O)CC=C3[C@]4(C)CC[C@H]5C(C)(C)[C@@H](O)CC[C@]5(C)[C@H]4CC[C@@]3(C)[C@@H]2C1	113%	103%
COc1c2c(cc3oc(CO[C@@H]4O[C@H](CO)[C@@H](O)[C@H](O)[C@H]4O)cc(=O)c13)O[C@H](C(C)(C)O)C2	112%	96.8%
CC[C@H](CC[C@@H](C)[C@H]1CC[C@H]2[C@@H]3CC=C4C[C@@H](O[C@@H]5O[C@H](CO)[C@@H](O)[C@H](O)[C@H]5O)CC[C@]4(C)[C@H]3CC[C@]12C)C(C)C	103%	94.6%
C[C@@H](C(=O)O)[C@@]1(C)CC[C@H]2[C@@](C)(CC[C@@]3(C)[C@@H]4CC(C)(C)CC[C@]4(C)CC[C@]23C)[C@@H]1CC(=O)O	90.9%	108%
COc1ccc(C(=O)O[C@H]2[C@@H]3C=CO[C@@H](O[C@@H]4O[C@H](CO)[C@@H](O)[C@H](O)[C@H]4O)[C@@H]3[C@@]3(CO)O[C@@H]23)cc1OC	97.7%	107%
CC1(C)CC[C@]2(C(=O)O)CC[C@]3(C)C(=CC[C@@H]4[C@@]5(C)CC[C@H](O)C(C)(C)[C@@H]5CC[C@]43C)[C@@H]2C1	117%	101%
O=C(O)c1cc(O)c(O)c(O)c1	103%	97.4%
CC(C)=CCOc1c2occc2cc2ccc(=O)oc12	102%	99%

SMILES	Activity [1]	Activity [2]
O=c1cc(-c2ccc(O)c(O)c2)oc2cc(O)cc(O)c12	93.6%	96.8%
O=C(O[C@H]1[C@@H]2C=CO[C@@H](O[C@@H]3O[C@H](CO)[C@@H](O)[C@H](O)[C@H]3O)[C@@H]2[C@@]2(CO)O[C@@H]12)c1ccc(O)c(O)c1	107%	88.3%
CC(C)=CCC[C@](C)(O[C@@H]1O[C@H](CO[C@@H]2O[C@H](CO)[C@@H](O)[C@H](O)[C@H]2O)[C@@H](O)[C@H](O)[C@H]1O)[C@H]1CC[C@]2(C)[C@@H]1[C@H](O)C[C@@H]1[C@@]3(C)CC[C@H](O[C@@H]4O[C@H](CO)[C@@H](O)[C@H](O)[C@H]4O[C@@H]4O[C@H](CO)[C@@H](O)[C@H](O)[C@H]4O)C(C)(C)[C@@H]3CC[C@]12C	105%	117%
CC(C)=CCC[C@](C)(O[C@@H]1O[C@H](CO[C@@H]2O[C@H](CO)[C@@H](O)[C@H](O)[C@H]2O)[C@@H](O)[C@H](O)[C@H]1O)[C@H]1CC[C@]2(C)[C@@H]1[C@H](O)C[C@@H]1[C@@]3(C)CC[C@H](O[C@@H]4O[C@H](CO)[C@@H](O)[C@H](O)[C@H]4O)C(C)(C)[C@@H]3CC[C@]12C	102%	122%
C[C@H]1[C@H](C)CC[C@]2(C(=O)O)CC[C@]3(C)C(=CC[C@@H]4[C@@]5(C)CC[C@H](O)C(C)(C)[C@@H]5CC[C@]43C)[C@H]12	114%	102%
COc1c2c(cc3oc(C)cc(=O)c13)OC(C(C)(C)O)C2 (centres undefined)	105%	103%
Cc1cc(=O)c2c(O)c3c(cc2o1)OC(C)(C)[C@@H](O)C3	105%	98.2%
C[C@H]1C(=O)CC[C@@H]2[C@]1(C)CC[C@H]1[C@@]2(C)CC[C@@]2(C)[C@@H]3CC(C)(C)CC[C@]3(C)CC[C@]12C	108%	104%
CC1(C)CC[C@]2(C)CC[C@]3(C)C(=CC[C@@H]4[C@@]5(C)[C@@H](O)C[C@H](O)C(C)(C)[C@@H]5[C@H](O)C[C@]43C)[C@@H]2C1	99%	98.6%
O=C(/C=C/c1ccc(O)cc1)c1ccc(O)cc1O	98.1%	94.6%
CC[C@H](CC[C@@H](C)[C@H]1CC[C@H]2[C@@H]3CC=C4C[C@@H](O)CC[C@]4(C)[C@H]3CC[C@]12C)C(C)C	98.8%	105%
C=C1CC[C@@H]2[C@H]([C@H]3[C@H]1CC[C@]3(C)O)C2(C)C	107%	106%
O=c1c(O)c(-c2ccc(O)cc2)oc2cc(O)cc(O)c12	112%	104%
O=c1cc(-c2ccccc2)oc2cc(O)cc(O)c12	96.7%	97.6%
C[C@H]1[C@H](C)CC[C@]2(C)CC[C@]3(C)C(=CC[C@@H]4[C@@]5(C)CC[C@H](O)C(C)(C)[C@@H]5CC[C@]43C)[C@H]12	112%	105%
C/C=C(/C)C(=O)O[C@H]1Cc2c(cc3oc(CO)cc(=O)c3c2O)OC1(C)C	108%	102%
O=c1c(O)c(-c2cc(O)c(O)c(O)c2)oc2cc(O)cc(O)c12	93.2%	95.5%
COc1ccc(-c2oc3c(CC=C(C)C)c(O)cc(O)c3c(=O)c2O)cc1	94.6%	97.9%
COc1ccc(/C=C/C(=O)O[C@H]2[C@@H]3C=CO[C@@H](O[C@@H]4O[C@H](CO)[C@@H](O)[C@H](O)[C@H]4O)[C@@H]3[C@@]3(CO)O[C@@H]23)cc1O	108%	107%
COc1c2c(cc3oc(C)cc(=O)c13)OC(C(C)(C)O[C@H]1O[C@@H](CO)[C@H](O)[C@@H](O)[C@@H]1O)C2 (some centres undefined)	108%	107%
C=C[C@]1(C)CC[C@@]2(C)C3=CCC[C@](C)(CO)[C@@H]3CC[C@@H]2C1	116%	106%
